In patent publication US20240182945A1, “PRODUCTS FOR REGULATION OF EUKARYOTIC AND MICROBIAL CELLS GROWTH” (priority 2021, published 2024):
In brackets after ≈: the same amount, converted by molar mass.

What was measured:
Gram negative rods = assay: Supplements added to culture media to control bacterial diversity (microscopy, 18 h); type: cell-based; parameters: key: “+++” marks the diversity of certain bacterial type in control; “+++++” indicates an increased diversity of bacterial type; settings: 18 h of cultivation
Text: (§1) We next studied, could we regulate bacterial diversity grown from the bio samples with different compounds including transcriptase inhibitors, protease inhibitors, recombinase/integrase inhibitors, nucleases.

[1] = test system: Gram positive non-sporeforming bacteria; assay: as above; type: cell-based; parameters: key: “+++” marks the diversity of certain bacterial type in control; “+++++” indicates an increased diversity of bacterial type; settings: 18 h of cultivation
Text: as §1

[2] = test system: Gram positive sporeforming bacteria; assay: as above; type: cell-based; parameters: key: “+++” marks the diversity of certain bacterial type in control; “+++++” indicates an increased diversity of bacterial type; settings: 18 h of cultivation
Text: as §1

Primary Pathogens = assay: Sensitivity of primary pathogens to antibiotics, standard serial microbroth-dilution method (Example 23); type: cell-based; settings: for MIC: Pseudomonas aeruginosa
Text: We used sputum from patients with different pulmonary infections. Pure bacterial culture of each microorganisms was obtained by routine microbiological methods, bacterial identification was done by MALDI-TOF analysis, microbial diversity of biosample was done by metagenomic analysis (16S RNA sequencing).
Primary pathogen was selected as a leading pathogen in each infection case, based on consultation with an independent doctors who have received a description of the clinical picture, microbiology and microbiology analyses. Sensitivity of PP to antibiotics was evaluated using a standard serial microbroth-dilution method.

PP in sputum biosamples = assay: Presence of PP growth in wells with different tobramycin concentrations; type: cell-based; parameters: key: “+”—presence of bacterial growth, antibiotic is ineffective; “−”—absence of bacterial growth, antibiotic is effective
Method: Next, biosamples were plated to the wells of 48 well plate filled with Columbia +Pept Meat Agar supplemented with tobramycin taken at different concentrations (we have taken MIC as equal to Cmax) and presence of PP growth was evaluated in each well in 24 h of growth.

PP [3] = assay: Neutropenic mouse pneumonia infected with biosamples, tobramycin treatment, decrease of PP count by 3log10 over 48 hours; type: in vivo, C57BL/6 mice; settings: efficacy = decrease of PP count by 3log10 over 48 hours
Method: Next, using the same biosamples we infected mice modulating pneumonia. For that, adult C57BL/6 mice were rendered neutropenic by injecting cyclophosphamide subcutaneously 4 days before infection (150 mg/kg of body weight), 1 day before infection (100 mg/kg), and 1 day after infection (100 mg/kg). Mice were anesthetized with 2% isoflurane and orally instilled with biosample disluted in PBS. Briefly, nares were blocked, and mice aspirated 50 μL of the biosample into the lungs while being held vertically for 60 s. MIX was taken as a Cmax.
30 animals were used (n=10 per group) and were treated with different concentrations of tobramycin according to the results obtained by proposed method from 3 different biosamples.
(§2) Efficacy was evaluated by the decrease of PP count by 3log10 over 48 hours.

PP [4] = assay: Animals treated with amoxicillin regimens, decrease of PP count by 3log10 over 48 hours; type: in vivo; settings: efficacy = decrease of PP count by 3log10 over 48 hours
Method: 25 animals were used (n=5 per group) and were treated with different concentrations of Amoxicillin according to the results obtained by proposed method from 3 different biosamples.
as §2

Compound: Nc1nc([O-])c2ncn(COCCO)c2n1.[Na+] [Group 12]
- diversity of Gram negative rods (Gram negative rods; compound at 100 ug/mL): +++
- diversity of Gram positive non-sporeforming bacteria ([1]; compound at 100 ug/mL): +++++
- diversity of Gram positive sporeforming bacteria ([2]; compound at 100 ug/mL): +++

Compound: C[C@H](Cn1cnc2c(N)ncnc21)OCP(=O)(O)O [Group 8]
- diversity of Gram negative rods (Gram negative rods; compound at 100 ug/mL): +++
- diversity of Gram positive non-sporeforming bacteria ([1]; compound at 100 ug/mL): +++++
- diversity of Gram positive sporeforming bacteria ([2]; compound at 100 ug/mL): +++

Compound: Nc1nc([O-])c2ncn(COCCO)c2n1.[Na+] [Group 11]
- diversity of Gram negative rods (Gram negative rods; compound at 0.5 ug/mL): +++
- diversity of Gram positive non-sporeforming bacteria ([1]; compound at 0.5 ug/mL): +++++
- diversity of Gram positive sporeforming bacteria ([2]; compound at 0.5 ug/mL): +++

Compound: NC[C@H]1O[C@H](O[C@H]2[C@H](O)[C@@H](O[C@H]3O[C@H](CO)[C@@H](O)[C@H](N)[C@H]3O)[C@H](N)C[C@@H]2N)[C@H](N)C[C@@H]1O [Tobramycin]
- Sensitivity (CLSI interpretation) (Primary Pathogens; Biosample 1, P. aeruginosa): S
- Sensitivity (CLSI interpretation) (Primary Pathogens; Biosample 2, P. aeruginosa): I
- Sensitivity (CLSI interpretation) (Primary Pathogens; Biosample 3, P. aeruginosa): I
- MIC (Primary Pathogens; Biosample 1, P. aeruginosa): 2 mg/L (≈ 4.28 µM)
- MIC (Primary Pathogens; Biosample 2, P. aeruginosa): 8 mg/L (≈ 17.1 µM)
- MIC (Primary Pathogens; Biosample 3, P. aeruginosa): 8 mg/L (≈ 17.1 µM)
- Presence of bacterial growth in the wells (PP in sputum biosamples; Biosample 1 (PP P. aeruginosa), 1/10 Cmax, 24 h): −
- Presence of bacterial growth in the wells (PP in sputum biosamples; Biosample 1 (PP P. aeruginosa), 1/100 Cmax, 24 h): +
- Presence of bacterial growth in the wells (PP in sputum biosamples; Biosample 1 (PP P. aeruginosa), Cmax × 2, 24 h): −
- Presence of bacterial growth in the wells (PP in sputum biosamples; Biosample 1 (PP P. aeruginosa), Cmax × 10, 24 h): −
- Presence of bacterial growth in the wells (PP in sputum biosamples; Biosample 1 (PP P. aeruginosa), Cmax, 24 h): −
- Presence of bacterial growth in the wells (PP in sputum biosamples; Biosample 1 (PP P. aeruginosa), ¼ Cmax, 24 h): −
- Presence of bacterial growth in the wells (PP in sputum biosamples; Biosample 1 (PP P. aeruginosa), ½ Cmax, 24 h): −
- Presence of bacterial growth in the wells (PP in sputum biosamples; Biosample 2 (PP P. aeruginosa), 1/10 Cmax, 24 h): +
- Presence of bacterial growth in the wells (PP in sputum biosamples; Biosample 2 (PP P. aeruginosa), 1/100 Cmax, 24 h): +
- Presence of bacterial growth in the wells (PP in sputum biosamples; Biosample 2 (PP P. aeruginosa), Cmax × 2, 24 h): −
- Presence of bacterial growth in the wells (PP in sputum biosamples; Biosample 2 (PP P. aeruginosa), Cmax × 10, 24 h): −
- Presence of bacterial growth in the wells (PP in sputum biosamples; Biosample 2 (PP P. aeruginosa), Cmax, 24 h): −
- Presence of bacterial growth in the wells (PP in sputum biosamples; Biosample 2 (PP P. aeruginosa), ¼ Cmax, 24 h): +
- Presence of bacterial growth in the wells (PP in sputum biosamples; Biosample 2 (PP P. aeruginosa), ½ Cmax, 24 h): +
- Presence of bacterial growth in the wells (PP in sputum biosamples; Biosample 3 (PP P. aeruginosa), 1/10 Cmax, 24 h): +
- Presence of bacterial growth in the wells (PP in sputum biosamples; Biosample 3 (PP P. aeruginosa), 1/100 Cmax, 24 h): +
- Presence of bacterial growth in the wells (PP in sputum biosamples; Biosample 3 (PP P. aeruginosa), Cmax × 2, 24 h): −
- Presence of bacterial growth in the wells (PP in sputum biosamples; Biosample 3 (PP P. aeruginosa), Cmax × 10, 24 h): −
- Presence of bacterial growth in the wells (PP in sputum biosamples; Biosample 3 (PP P. aeruginosa), Cmax, 24 h): −
- Presence of bacterial growth in the wells (PP in sputum biosamples; Biosample 3 (PP P. aeruginosa), ¼ Cmax, 24 h): −
- Presence of bacterial growth in the wells (PP in sputum biosamples; Biosample 3 (PP P. aeruginosa), ½ Cmax, 24 h): −
- Number of animals to whom therapy was effective/number of animals per group (PP [3]; Group 1a, biosample #1, Cmax 1/10 (lowest EFFECTIVE)): 5/5
- Number of animals to whom therapy was effective/number of animals per group (PP [3]; Group 1b, biosample #1, Cmax 1/100 (highest INEFFECTIVE)): 0/5
- Number of animals to whom therapy was effective/number of animals per group (PP [3]; Group 2a, biosample #2, Cmax 1/1 (lowest EFFECTIVE)): 5/5
- Number of animals to whom therapy was effective/number of animals per group (PP [3]; Group 2b, biosample #2, Cmax 1/10 (highest INEFFECTIVE)): 0/5
- Number of animals to whom therapy was effective/number of animals per group (PP [3]; Group 3a, biosample #3, Cmax 1/4 (lowest EFFECTIVE)): 5/5
- Number of animals to whom therapy was effective/number of animals per group (PP [3]; Group 3b, biosample #3, Cmax 1/10 (highest INEFFECTIVE)): 0/5
- Number of animals to whom therapy was effective/number of animals per group (PP [4]; Group 1a, biosample #1, QID (lowest EFFECTIVE)): 5/5
- Number of animals to whom therapy was effective/number of animals per group (PP [4]; Group 2a, biosample #2, TID (lowest EFFECTIVE)): 5/5
- Number of animals to whom therapy was effective/number of animals per group (PP [4]; Group 2b, biosample #2, BID (highest INEFFECTIVE)): 0/5
- Number of animals to whom therapy was effective/number of animals per group (PP [4]; Group 3a, biosample #3, BID (lowest EFFECTIVE)): 5/5
- Number of animals to whom therapy was effective/number of animals per group (PP [4]; Group 3b, biosample #3, QID (highest INEFFECTIVE)): 0/5

Compound: C[C@H](Cn1cnc2c(N)ncnc21)OCP(=O)(O)O [Group 7]
- diversity of Gram negative rods (Gram negative rods; compound at 0.5 ug/mL): +++
- diversity of Gram positive non-sporeforming bacteria ([1]; compound at 0.5 ug/mL): +++++
- diversity of Gram positive sporeforming bacteria ([2]; compound at 0.5 ug/mL): +++
